Measurements from article PMC5905968, “Evaluation of the fusion inhibitor P3 peptide as a potential microbicide to prevent HIV transmission in women” (PLoS ONE, 2018).

How the values were obtained:
[1] = system: vaginal epithelium of BALB/c mice; test: BALB/c mice vaginal irritation test with histological score; assay type: in vivo; design: key to Epithelial lesion / Inflammatory infiltrate / Vascular congestion / Edema/fibrosis / Total Score: 0 (no change) when no injury or the observed changes were within normal range; 1 (minimum) when changes were sparse but exceeded those considered normal; 2 (light) when injuries were identifiable but with no severity; 3 (moderate) for significant injury that could increase in severity; 4 (very serious) for very serious injuries that occupy most of the analyzed tissue; settings: for Edema/fibrosis / Epithelial lesion / Inflammatory infiltrate / Vascular congestion / Total Score: 3% N9 intravaginally, 7 days (irritation control); for Total Score: sum of the four lesion scores
Experimental: Female BALB/c mice (6–8 weeks-old) (Charles River Laboratories, Wilmington, MA) were pretreated subcutaneously with 2mg of medroxyprogesterone acetate (Depo-Provera; Pfizer, NY, USA) in PBS (Lonza, Verviers, Belgium). After five days, 30μl of test formulation with different doses of P3 diluted in PBS was applied intravaginally daily for 7 days by vaginal gavage to animals previously anesthetized with isoflurane (Forane, Abbott, Madrid). Controls included mice that received PBS (placebo group) and 3% nonoxynol-9 (N9) in PBS (irritation control group). On the eighth day, mice were sacrificed and genital tract tissue were extracted and fixed in 4% paraformaldehyde for histological analysis. The animals were distributed in groups of three mice each: group placebo only treated with PBS (1–3), group A treated with dose of 0.06mg/day ([…]) of P3 in PBS (4–6), group B treated with dose of 0.2mg/day (1522.7 μM) of P3 in PBS (7–9), group C treated with dose of 0.4mg/day (3045.3 μM) of P3 in PBS (10–12) and group irritation control treated with 3% N9 in PBS (13–15).
The presence of histological lesions in the mouse vaginas was evaluated with hematoxylin-eosin staining. Samples were embedded in paraffin by submersion in increasing concentrations of ethanol in water (Rectapur, VWR, England), two baths of xylene (Analar (VWR, England) and another of paraffin, before being placed in a paraffin mold. Subsequently, they were cut using a semimotorized microtome (RM2145 Leica, Germany) and processed for staining. For dewaxing, samples were submersed into two baths of xylene solution (10 min) and three baths in descending order of ethanol (100%, 90% and 70%) (5 min), before being stained with hematoxylin (Merck, Germany) for 5 min and eosin (Merck, Germany) for another 5 min. Post-eosin staining dehydration was performed with passages in increasing concentrations of ethanol (70%, 90% and 100%) and a bath of xylene solution. Finally, they were mounted with D.P.X. (Prolabo, VWR, Spain).
The existence of injury in vaginal epithelium, inflammatory infiltrate, vascular congestion and/or edema in the submucosa was evaluated in each biological sample. The values (score) assigned for each of these lesions were: 0 (no change) when no injury or the observed changes were within normal range; 1 (minimum) when changes were sparse but exceeded those considered normal; 2 (light) when injuries were identifiable but with no severity; 3 (moderate) for significant injury that could increase in severity; 4 (very serious) for very serious injuries that occupy most of the analyzed tissue. These values were added up and determined the level of vaginal irritation as minimum 1–4, average 5–8, moderate 9–11 and severe 12–16 [34].

[2] = at temperatures higher than 40 °C; cited from earlier work
Experimental: Microbicides must be stable at 37°C for a long period of time since it is the body temperature, and at 65 °C since some manufacturing processes may require high temperatures. Stability at room temperature or at 4 °C is also important since the storage at these temperatures is easier for the user and more affordable than at -20 °C. No statistically significance differences were observed on the anti-HIV-1 activity of P3 peptide stored at 25, 37 and 65 °C for a period of a week. The stability of P3 under different temperatures is much better than other peptide-based microbicide candidates or d ...

Compound | level of irritation of the vaginal wall ([1]; 3% N9 in PBS daily for 7 days, three samples) | Edema/fibrosis ([1]; mouse 13) | Epithelial lesion ([1]; mouse 13) | Inflammatory infiltrate ([1]; mouse 13) | Vascular congestion ([1]; mouse 13) | Total Score ([1]; mouse 13) | Edema/fibrosis ([1]; mouse 14) | Epithelial lesion ([1]; mouse 14) | Inflammatory infiltrate ([1]; mouse 14) | Vascular congestion ([1]; mouse 14) | Total Score ([1]; mouse 14) | Edema/fibrosis ([1]; mouse 15) | Epithelial lesion ([1]; mouse 15) | Inflammatory infiltrate ([1]; mouse 15) | Vascular congestion ([1]; mouse 15) | Total Score ([1]; mouse 15) | thermal stability [2]
CCCCCCCCCc1ccc(OCCOCCOCCOCCOCCOCCOCCOCCOCCO)cc1 [N9, nonoxynol-9, reference compound] | average (average 5–8) | 0 | 3 | 3 | 2 | 8 | 0 | 2 | 3 | 2 | 7 | 0 | 3 | 3 | 2 | 8 | –
Spantide II | – | – | – | – | – | – | – | – | – | – | – | – | – | – | – | – | not stable
